Results taken from the Kinase Knowledgebase extract (Sharma et al. 2016).

These molecules were tested against PIK3CG (human) (UniProt P48736) (assay: Inhibition of PIK3CG Kinase Activity).
Sequence of PIK3CG (human) (P48736 whole entry, looked up): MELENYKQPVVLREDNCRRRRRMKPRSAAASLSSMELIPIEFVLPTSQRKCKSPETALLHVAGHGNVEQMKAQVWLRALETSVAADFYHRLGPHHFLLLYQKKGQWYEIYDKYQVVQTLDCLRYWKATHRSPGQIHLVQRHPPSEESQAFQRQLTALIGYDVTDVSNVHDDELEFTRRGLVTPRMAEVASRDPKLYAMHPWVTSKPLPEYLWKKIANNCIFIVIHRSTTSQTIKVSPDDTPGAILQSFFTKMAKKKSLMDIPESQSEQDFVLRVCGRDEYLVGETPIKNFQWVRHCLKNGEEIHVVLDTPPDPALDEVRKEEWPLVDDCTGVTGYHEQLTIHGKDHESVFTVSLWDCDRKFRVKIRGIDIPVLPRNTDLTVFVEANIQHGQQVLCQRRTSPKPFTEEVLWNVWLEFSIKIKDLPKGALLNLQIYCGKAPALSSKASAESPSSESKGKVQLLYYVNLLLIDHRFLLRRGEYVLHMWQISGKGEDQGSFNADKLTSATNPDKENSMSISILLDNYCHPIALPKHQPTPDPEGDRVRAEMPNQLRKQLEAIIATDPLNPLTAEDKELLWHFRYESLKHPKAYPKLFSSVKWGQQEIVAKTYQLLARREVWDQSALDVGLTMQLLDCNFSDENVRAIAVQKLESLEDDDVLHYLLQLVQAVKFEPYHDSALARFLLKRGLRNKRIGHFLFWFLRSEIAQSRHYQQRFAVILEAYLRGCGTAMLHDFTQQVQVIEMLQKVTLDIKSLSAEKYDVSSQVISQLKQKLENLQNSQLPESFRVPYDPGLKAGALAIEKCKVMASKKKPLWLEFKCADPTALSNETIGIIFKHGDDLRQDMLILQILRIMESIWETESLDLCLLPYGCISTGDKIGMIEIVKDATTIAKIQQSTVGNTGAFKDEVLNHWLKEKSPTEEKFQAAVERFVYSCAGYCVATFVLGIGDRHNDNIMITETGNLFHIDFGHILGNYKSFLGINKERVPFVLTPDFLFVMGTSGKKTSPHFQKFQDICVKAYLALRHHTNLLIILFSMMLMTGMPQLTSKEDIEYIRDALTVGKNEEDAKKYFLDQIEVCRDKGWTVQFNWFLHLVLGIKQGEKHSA
`Cc1cc(-c2cncc(CO)c2)nc2c1C(=O)N(c1cnn(CC(F)(F)F)c1)C2` was tested, and the Ki was under 100 nM. Molecule `COc1cncc(-c2cc(C)c3c(n2)C(C)N(c2ccn(CC(C)(C)O)n2)C3=O)c1` (stereo not drawn) has a Ki of under 100 nM. In the case of `COc1cc(-c2ccc3c(c2)CN(c2cnn(CCCO)c2)C3=O)cnc1OC`, the Ki is reported as 100 to 490 nM. `COc1cc(-c2cc(C)c3c(n2)CN(c2cnn(CC(F)(F)F)c2)C3=O)cnc1O` gave a Ki of under 100 nM. In the case of `Cc1cc(-c2cncc(OC(F)F)c2)nc2c1C(=O)N(c1cn[nH]c1)[C@@H]2C`, the Ki is reported as under 100 nM. Molecule `CCC1c2nc(-c3cnc(OC)c(OC)c3)ccc2C(=O)N1c1cc(COC)n(CC)n1` (stereo not drawn) has a Ki of 100 to 490 nM. `Cc1cc(-c2cncc(OCC(F)F)c2)nc2c1C(=O)N(c1cnn(CC(F)(F)F)c1)[C@H]2C` showed a Ki of under 100 nM. `CCn1ccc(N2C(=O)c3ccc(-c4cnc(OC)c(OC)c4)nc3C2C)n1` (stereo not drawn) showed a Ki of under 100 nM. Work on `C=C(F)Cn1cc(N2Cc3nc(-c4cnc(OC)c(OC)c4)ccc3C2=O)cn1` yielded a Ki of under 100 nM. For `COc1cncc(-c2cc(C)c3c(n2)C(C)N(c2csc(C)n2)C3=O)c1` (stereo not drawn), the Ki was under 100 nM. Molecule `COc1cncc(-c2cc(C)c3c(n2)[C@@H](C)N(c2ccn(C)n2)C3=O)c1` has a Ki of under 100 nM. `COc1cc(-c2ccc3c(n2)CN(c2cnn(CCN4CCOCC4)c2)C3=O)cnc1OC` showed a Ki of 100 to 490 nM. `COc1cc(-c2cc(C)c3c(n2)CN(c2ccsc2)C3=O)cnc1OC` showed a Ki of under 100 nM. `COCCOc1ncc(-c2cc(C)c3c(n2)[C@@H](C)N(c2ccn(C)n2)C3=O)cc1OC` was tested, and the Ki was under 100 nM. `CCn1ccc(N2C(=O)c3c(C)cc(-c4cncc(OC)c4)nc3[C@@H]2C)n1` showed a Ki of under 100 nM. In the case of `COc1ncc(-c2cc(C)c3c(n2)CN(c2cnn(CC(F)(F)F)c2)C3=O)cc1OC1CCOCC1`, the Ki is reported as under 100 nM. `CCOc1cc(-c2ccc3c(n2)CN(c2cnn(CC#N)c2)C3=O)cnc1OCC` gave a Ki of under 100 nM. With `COc1cc(-c2cc(OC)c3c(n2)CN(c2cnn(CC#N)c2)C3=O)cnc1OC` the Ki was under 100 nM. Molecule `CCn1cc(N2Cc3nc(-c4cnc(OC)c(OC)c4)cc(C)c3C2=O)cn1` has a Ki of under 100 nM. With `COc1ncc(-c2cc(C)c3c(n2)C(C)(C)N(c2cnn(CC(F)(F)F)c2)C3=O)cc1C(=O)N(C)C` the Ki was under 100 nM. `CCn1cc(N2C(=O)c3c(C)cc(-c4cncc(OC(F)F)c4)nc3[C@H]2C)cn1` was tested, and the Ki was under 100 nM. In the case of `Cc1cc(-c2cnc(C)c(C(=O)NC(C)C)c2)nc2c1C(=O)N(c1cnn(CC(F)(F)F)c1)C2(C)C`, the Ki is reported as under 100 nM. `CCO[C@@H]1c2nc(-c3cnc(OC)c(OC)c3)cc(C)c2C(=O)N1c1cnn(CC(F)(F)F)c1` gave a Ki of under 100 nM. Work on `COc1cc(OC)cc(-c2cc(C)c3c(n2)[C@H](C)N(c2cnn(CC(F)(F)F)c2)C3=O)c1` yielded a Ki of under 100 nM. For `C#CCNC(=O)c1cncc(-c2cc(C)c3c(n2)C(C)(C)N(c2cnn(CC(F)(F)F)c2)C3=O)c1`, the Ki was under 100 nM. `COc1cc(-c2ccc3c(n2)CN(c2cc(C)n(CC(F)(F)F)n2)C3=O)cnc1OC` was tested, and the Ki was under 100 nM. `COc1cc(-c2ccc3c(n2)CN(c2cnn(Cc4cccnc4C)c2)C3=O)cnc1OC` was tested, and the Ki was under 100 nM. For `COc1ncc(-c2cc(C)c3c(n2)C(C)(C)N(c2cnn(CC(F)(F)F)c2)C3=O)cc1C(=O)NC1COC1`, the Ki was under 100 nM. `COc1cc(-c2cc(C)c3c(n2)CN(c2cc(C)[nH]n2)C3=O)cnc1OC` showed a Ki of under 100 nM. `COc1cc(-c2ccc3c(n2)CN(c2cnn(Cc4csc(C)n4)c2)C3=O)cnc1OC` gave a Ki of under 100 nM. With `COc1cc(-c2cc(C)c3c(n2)C(OCC(F)(F)F)N(c2cnn(CC(F)(F)F)c2)C3=O)cnc1OC` (stereo not drawn) the Ki was under 100 nM. For `CCNC(=O)c1cc(-c2cc(C)c3c(n2)C(C)(C)N(c2cnn(CC(F)(F)F)c2)C3=O)cnc1C`, the Ki was under 100 nM. `CCOc1cncc(-c2cc(C)c3c(n2)C(C)(C)N(c2cn[nH]c2)C3=O)c1` was tested, and the Ki was 100 to 490 nM. Work on `COc1cc(-c2ccc3c(n2)CN(c2cccc(CC#N)c2)C3=O)cnc1OC` yielded a Ki of under 100 nM. Work on `COc1cc(-c2ccc3c(n2)CN(c2ccn(CC4CCCCO4)n2)C3=O)cnc1OC` (stereo not drawn) yielded a Ki of under 100 nM. `Cc1cc(-c2cncc(S(=O)(=O)N(C)C)c2)nc2c1C(=O)N(c1cnn(CC(F)(F)F)c1)C21CCOC1` (stereo not drawn) gave a Ki of under 100 nM. `COc1csc(-c2cc(C)c3c(n2)CN(c2cnn(CC(F)(F)F)c2)C3=O)c1` was tested, and the Ki was under 100 nM. `CCOc1cncc(-c2cc(C)c3c(n2)C(C)(C)N(c2cnn(CC(F)(F)F)c2)C3=O)c1` gave a Ki of under 100 nM. For `Cc1cc(-c2cc(C)c3c(n2)CN(c2cnn(CC(F)(F)F)c2)C3=O)ccn1`, the Ki was under 100 nM. `COc1cc(-c2ccc3c(n2)CN(c2cnn(CC(C)C)c2)C3=O)cnc1OC` gave a Ki of under 100 nM. In the case of `COc1cc(-c2ccc3c(n2)CN(c2cnn([C@@H](CO)C(F)(F)F)c2)C3=O)cnc1OC`, the Ki is reported as under 100 nM. Molecule `Cc1cc(-c2cncc(S(=O)(=O)N(C)C)c2)nc2c1C(=O)N(c1cnn(CC(F)(F)F)c1)C2(C)C` has a Ki of under 100 nM. Molecule `COc1cc(-c2ccc3c(n2)CN(c2ccc(=O)n(CC4COCCO4)c2)C3=O)cnc1OC` (stereo not drawn) has a Ki of under 100 nM. Work on `CCCOc1cc(-c2cc(C)c3c(n2)CN(c2ccn(CC)n2)C3=O)cnc1OC` yielded a Ki of under 100 nM. `COc1cc(-c2ccc3c(n2)CN(c2ccc(N4CCC(C#N)CC4)nc2)C3=O)cnc1OC` gave a Ki of under 100 nM. `COc1cc(-c2ccc3c(n2)CN(c2cnn(CCN4CCC(C#N)CC4)c2)C3=O)cnc1OC` gave a Ki of 100 to 490 nM. For `Cc1cc(-c2cncc(OC(F)F)c2)nc2c1C(=O)N(c1cnn(C(C)(C)C#N)c1)C2C` (stereo not drawn), the Ki was under 100 nM. `Cc1cc(-c2cnc(C)c(C(=O)N(C)C)c2)nc2c1C(=O)N(c1cnn(CC(F)(F)F)c1)C2(C)C` gave a Ki of under 100 nM.
